Bounds are passed on as bounds.

Consider 8 molecules from patent publication US20250074920A1, “MACROCYCLIC COMPOUNDS AND USE AS KINASE INHIBITORS” (BLOSSOMHILL THERAPEUTICS, INC., priority 2022, published 2025).

Holding throughout (assay): KINOMEscan kinase binding assay
The target of assay [1] is JAK3(JH1domain-catalytic). Particulars: read-out: JAK3(JH1 domain-catalytic) Kd. As to the method:
(§1) Kinase binding assays were performed at Eurofins/DiscoveRx using the general KINOMEscan Protocol (Fabian, M. A. et al., “A small molecule-kinase interaction map for clinical kinase inhibitors,” Nat. Biotechnol. 2005, 23(3):329-36). For most assays, kinase-tagged T7 phage strains were prepared in an E. coli host derived from the BL21 strain. E. coli were grown to log-phase and infected with T7 phage and incubated with shaking at 32° C. until lysis. The lysates were centrifuged and filtered to remove cell debris. The remaining kinases were produced in HEK-293 cells and subsequently tagged with DNA for qPCR detection. Streptavidin-coated magnetic beads were treated with biotinylated small molecule ligands for 30 minutes at room temperature to generate affinity resins for kinase assays. The liganded beads were blocked with excess biotin and washed with blocking buffer (SeaBlock (Pierce), 1% BSA, 0.05% Tween 20, 1 mM DTT) to remove unbound ligand and to reduce nonspecific binding. Binding reactions were assembled by combining kinases, liganded affinity beads, and test compounds in 1× binding buffer (20% SeaBlock, 0.17×PBS, 0.05% Tween 20, 6 mM DTT). All reactions were performed in polystyrene 96-well plates in a final volume of 0.135 mL. The assay plates were incubated at room temperature with shaking for 1 hour and the affinity beads were washed with wash buffer (1×PBS, 0.05% Tween 20). The beads were then re-suspended in elution buffer (1×PBS, 0.05% Tween 20, 0.5 μM non-biotinylated affinity ligand) and incubated at room temperature with shaking for 30 minutes. The kinase concentration in the eluates was measured by qPCR. Results for compounds tested in this assay at a given concentration are reported as “% Ctrl”, where lower numbers indicate stronger binding in the matrix. % Ctrl was calculated as (test compound signal-positive control signal)/(negative control signal-positive control signal)×100. Dissociation constants (Kds) for test compound-kinase interactions were calculated by measuring the amount of kinase captured on the solid support as a function of the test compound concentration.

The target in assay [2] is JAK1(JH2domain-pseudokinase). Particulars: read-out: JAK1(JH2 domain-pseudokinase) Kd. As to the method:
as §1

For assay [3], the target named is JAK1(JH1domain-catalytic). The following applies: read-out: JAK1(JH1 domain-catalytic) Kd. As to the method: as §1
Assay [4] deals with JAK2(JH1domain-catalytic). The following applies: read-out: JAK2(JH1 domain-catalytic) Kd. As to the method: as §1
For assay [5], the target named is TYK2(JH1domain-catalytic). The following applies: read-out: TYK2(JH1 domain-catalytic) Kd. As to the method: as §1
In assay [6] the target is TYK2(JH2domain-pseudokinase). Particulars: read-out: TYK2(JH2 domain-pseudokinase) Kd. The procedure: as §1

In the case of `Cc1cc2c([nH]1)/C=C1\C(=O)Nc3c(F)cc(cc31)-c1c(nn(C)c1C)COC[C@@H](C)N(C)C2=O` [compound 11, [3a(4)Z,10R]-20-fluoro-6,9,10,15,16-pentamethyl-10,11,13,15-tetrahydro-2H-1,17-ethenopyrazolo[4,3-m]dipyrrolo[3,2-f:3′,4′-i][1,4]oxazacyclopentadecine-3,8(5H,9H)-dione], the Kd (commonly the free concentration of one partner at which half of the binding sites on the other are occupied at equilibrium, for simple one-to-one binding) is 5.2 µM in assay [1]; 0.73 µM in assay [2]; greater than 10 µM in assay [3]; greater than 10 µM in assay [4]; greater than 10 µM in assay [5]; 0.0034 µM in assay [6].
For `Cc1cc2c([nH]1)/C=C1\C(=O)Nc3c(Cl)cc(cc31)-c1cn(C)nc1COC[C@H](C)N(C)C2=O` [compound 6, [3a(4)Z,10S]-20-chloro-6,9,10,15-tetramethyl-10,11,13,15-tetrahydro-2H-1,17-(ethanediylidene)pyrazolo[4,3-m]dipyrrolo[3,2-f:3′,4′-i][1,4]oxazacyclopentadecine-3,8(5H,9H)-dione], the Kd in assay [1] was greater than 10 µM; in assay [2], 0.16 µM; in assay [3] it was greater than 10 µM; in assay [4] it was greater than 10 µM; in assay [5], greater than 10 µM; in assay [6], 0.0025 µM.
In the case of `Cc1cc2c([nH]1)/C=C1\C(=O)Nc3c(C#N)cc(cc31)-c1cn(C)nc1COC[C@@H](C)N(C)C2=O` [Cpd. 10, [3a(4)Z,10R]-6,9,10,15-tetramethyl-3,8-dioxo-3,5,8,9,10,11,13,15-octahydro-2H-1,17-(ethanediylidene)pyrazolo[4,3-m]dipyrrolo[3,2-f:3′,4′-i][1,4]oxazacyclopentadecine-20-carbonitrile], the Kd in assay [1] was greater than 1 µM; in assay [3], greater than 1 µM; in assay [4], greater than 1 µM; in assay [6], 0.046 µM.
For `Cc1cc2c([nH]1)/C=C1\C(=O)Nc3c(F)cc(cc31)-c1cn(C)nc1COC[C@@H](C)N(C)C2=O` [compound 13, [3a(4)Z,10R]-20-fluoro-6,9,10,15-tetramethyl-10,11,13,15-tetrahydro-2H-1,17-ethenopyrazolo[4,3-m]dipyrrolo[3,2-f:3′,4′-i][1,4]oxazacyclopentadecine-3,8(5H,9H)-dione], the Kd in assay [1] was greater than 10 µM; in assay [2], 0.41 µM; in assay [3], greater than 10 µM; in assay [4], greater than 10 µM; in assay [5], greater than 10 µM; in assay [6], 0.001 µM.
`Cc1nc2c([nH]1)/C=C1\C(=O)Nc3c(Cl)cc(cc31)-c1cn(C)nc1COC[C@@H](C)N(C)C2=O` [Cpd. 8, [3a(4)Z,10R]-20-chloro-6,9,10,15-tetramethyl-10,11,13,15-tetrahydro-2H-1,17-(ethanediylidene)imidazo[4,5-f]pyrazolo[4,3-m]pyrrolo[3,4-i][1,4]oxazacyclopentadecine-3,8(5H,9H)-dione]: the Kd is greater than 10 µM in assay [1]; greater than 10 µM in assay [3]; greater than 10 µM in assay [4]; greater than 10 µM in assay [5]; 0.17 µM in assay [6].
Regarding `Cc1cc2c([nH]1)/C=C1\C(=O)Nc3c(Cl)cc(cc31)-c1c(nn(C)c1C)COC[C@@H](C)N(C)C2=O` [compound 12, [3a(4)Z,10R]-20-chloro-6,9,10,15,16-pentamethyl-10,11,13,15-tetrahydro-2H-1,17-ethenopyrazolo[4,3-m]dipyrrolo[3,2-f:3′,4′-i][1,4]oxazacyclopentadecine-3,8(5H,9H)-dione], the Kd in assay [1] was greater than 10 µM; in assay [2], 0.12 µM; in assay [3], greater than 10 µM; in assay [4], greater than 10 µM; in assay [5], greater than 10 µM; in assay [6], 0.0013 µM.
In the case of `Cc1cc2c([nH]1)/C=C1\C(=O)Nc3c(Cl)cc(cc31)-c1[nH]c(C)nc1COC[C@@H](C)N(C)C2=O` [Cpd. 9, [3a(4)Z,10R]-20-chloro-6,9,10,15-tetramethyl-10,11,13,16-tetrahydro-2H-1,17-(ethanediylidene)imidazo[4,5-m]dipyrrolo[3,2-f:3′,4′-i][1,4]oxazacyclopentadecine-3,8(5H,9H)-dione], the equilibrium dissociation constant (Kd) in assay [1] was 3.1 µM; in assay [2], 0.13 µM; in assay [3] it was greater than 10 µM; in assay [4], greater than 10 µM; in assay [5], greater than 10 µM; in assay [6] it was 0.001 µM.
Regarding `Cc1cc2c([nH]1)/C=C1\C(=O)Nc3c(Cl)cc(cc31)-c1cn(C)nc1COCCN(C)C2=O` [Cpd. 7, [3a(4)Z]-20-chloro-6,9,15-trimethyl-10,11,13,15-tetrahydro-2H-1,17-(ethanediylidene)pyrazolo[4,3-m]dipyrrolo[3,2-f:3′,4′-i][1,4]oxazacyclopentadecine-3,8(5H,9H)-dione], the Kd in assay [1] was greater than 10 µM; in assay [2], 0.047 µM; in assay [3], greater than 10 µM; in assay [4], greater than 10 µM; in assay [5] it was greater than 10 µM; in assay [6], 0.00051 µM.
